Experimental findings from ChEMBL document CHEMBL1142046 (Bioorg Med Chem Lett, 2005) are described below.

≈ marks a conversion by molar mass, not a printed value.

Assay [1] concerns Vero. As to the kind of experiment: Compound concentration to reduce virus cytopathic effect by 50% tested against herpes simplex virus-1(KOS) using Vero cell line. In kind it is functional, cell-based. Conditions: Chlorocebus sabaeus. On the technique in general: Damage to the host cells serves as the signal in cytopathic effect assays.
The test system of assay [2] is Vero. Put plainly: Compound concentration to reduce virus cytopathic effect by 50% tested against herpes simplex […] using Vero cell line. The format is functional, cell-based. Conditions: Chlorocebus sabaeus.
Assay [3] relates to HEL. As to the kind of experiment: Compound concentration to reduce virus plague formation by 50% tested against human cytomegalovirus laboratory strains Davis using HEL cell line. The format is functional, cell-based.
Assay [4] relates to Vero. Put plainly: Minimum cytotoxic compound concentration to induce microscopically detectable alteration of cell morphology, using Vero cell line. The format is functional, Chlorocebus sabaeus.
In assay [5] the test system is MRC5. As to the kind of experiment: Cytotoxic compound concentration to reduce neutral red uptake by 50% using MRC-5 cell line. In kind it is functional, Homo sapiens.
In assay [6] the test system is MRC5. Put plainly: Compound concentration to reduce virus plague formation by 50% tested against human cytomegalovirus laboratory strains Ad169 using MRC-5 cell line. The format is functional, cell-based.
For assay [7], the system named is MRC5. Put plainly: Compound concentration to reduce virus plague formation by 50% tested against human cytomegalovirus laboratory strains P8 using MRC-5 cell line. The format is functional, cell-based.

For orientation: IC50 means the concentration needed to halve the response being measured. For the compound `O=C1NCc2ccccc2OCCC/C=C/c2cncc3ccc1nc23`, the IC50 in assay [1] is 0.098 µg/mL (≈ 0.284 µM); in assay [2], 0.004 µg/mL (≈ 0.0116 µM); in assay [3], 0.003 µg/mL (≈ 0.00869 µM). Also, the “minimum cytotoxic concentration (MCC)” value in assay [4] was found to be 25 µg/mL. In assay [5], the CC50% stood at 0.2 µg/mL (≈ 0.579 µM).
For `O=C1NCc2ccccc2OCC/C=C/c2cncc3ccc1nc23`, the IC50 in assay [1] is 0.391 µg/mL (≈ 1.18 µM); in assay [2], 0.009 µg/mL (≈ 0.0272 µM); in assay [3], below 0.0015 µg/mL; in assay [6], 0.0006 µg/mL (≈ 0.00181 µM); in assay [7] it was 0.0052 µg/mL (≈ 0.0157 µM). The “minimum cytotoxic concentration (MCC)” value in assay [4] was found to be 6 µg/mL. This compound yielded a CC50% in assay [5] of 1.8 µg/mL (≈ 5.43 µM).
With `Cc1cncc2ccc(C(=O)NCc3ccccc3OC(C)C)nc12`, the IC50 in assay [6] was 0.09 µg/mL (≈ 0.268 µM); in assay [7], 0.13 µg/mL (≈ 0.388 µM). The CC50% in assay [5] came out at 2.4 µg/mL (≈ 7.16 µM).
In the case of `Nc1ccn(C[C@@H](CO)OCP(=O)(O)O)c(=O)n1.O.O` [CIDOFOVIR], the IC50 in assay [1] is 3.94 µg/mL; in assay [2] it was 1.28 µg/mL. Besides, the “minimum cytotoxic concentration (MCC)” value in assay [4] was above 100 µg/mL.
Consider `Nc1nc2c(ncn2COC(CO)CO)c(=O)[nH]1` [GANCICLOVIR], for which the IC50 was found to be 1.27 µg/mL (≈ 4.99 µM) in assay [1]; 1.22 µg/mL (≈ 4.78 µM) in assay [2]; 2.7 µg/mL (≈ 10.6 µM) in assay [3]; 2.2 µg/mL (≈ 8.62 µM) in assay [6]; 1.2 µg/mL (≈ 4.7 µM) in assay [7]. Further, the “minimum cytotoxic concentration (MCC)” value in assay [4] is above 100 µg/mL. The CC50% in assay [5] was above 1000 µg/mL.
